Experimental data published in article PMC8510368, “Secondary Metabolites with Anti-Inflammatory Activities from One Actinobacteria Amycolatopsis taiwanensis” (Molecules, 2021).
Like-named read-outs stand apart in the source and are kept apart here.

Columns and labels:
Assay type in all cases: cell-based, mouse
[1] = system: LPS-activated NO production in RAW 264.7 macrophages; assay: Inhibition of LPS-induced NO production (nitrite, Griess reagent assay); conditions: for IC50: Mus musculus, read-out: IC50 NO; for NO inhibition (in words): LPS-induced NO production in RAW 264.7
Experimental: (§1) Mouse macrophage cell line (RAW 264.7) was obtained from Bioresource Collection and Research Center (BCRC 60001) and cultured at 37 °C in Dulbecco’s Modified Eagle’s Medium (DMEM) supplemented with 10% fetal bovine serum (Gibco), 4.5 g/L glucose, 4 mM glutamine, penicillin (100 units/mL), and streptomycin (100 μg/mL) in a humidified atmosphere in a 5% CO2 incubator. The cells were treated with 10, 25, 50 μM natural products in the presence of 1 μg/mL LPS (lipopolysaccharide, Sigma-Aldrich, St. Louis, MO, USA) for 20 h. The concentration of NO in culture supernatants was determined as nitrite, a major stable product of NO, by Griess reagent assay, and cell viabilities were determined using the MTT assay as described previously.

[2] = Cell viability, MTT assay; set-up: concentration or dose not given beside the values; conditions: mouse
Experimental: as §1

RAW 264.7 cells = assay: Cell viability, MTT assay; set-up: concentration or dose not given beside the values
Experimental: as §1

iNOS mRNA expression = assay: RT-PCR analysis of LPS-induced iNOS mRNA expression; conditions: LPS treatment
[3] = RAW264.7, RAW 264.7 macrophages, 1 μg/mL LPS, 20 h, mean ± SEM (n = 4) of 3 independent experiments
[4] = RAW 264.7 macrophage cells, RAW 264.7, MTT assay, read-out: cell viability
[5] = RAW 264.7 macrophage cells, RAW 264.7 macrophages, MTT assay, mean ± SEM, read-out: Cell Viability (% Control)

Compound: COc1cc(CCCOC(C)=O)cc(OC)c1O [Compound 7, amycolataiwanensin G]
- IC50 [1, 3]: 12.8 ± 4.82 µM
- viability at 20 h [2, 4]: < 80%
- viability at 20 h [2, 5]: 56.3 ± 3.91%

Compound: CC(=O)OCC(C)(O)C1CCC(C)C12CC=C(C)CC2 (stereo not drawn) [Compound 2, 12-acetoxy-11-hydroxyacora-3-ene]
- NO inhibition (in words) [1]: less effective NO inhibition
- IC50 [1, 3]: 34.2 ± 1.97 µM
- viability at 20 h [2, 5]: 99.6 ± 5.53%

Compound: CC(C)C1=C(O)C(=O)C2=C(CCC3C(C)(C)[C@@H](O)CC[C@]23C)C1=O (stereo partly drawn) [Compound 4, amycolataiwanensin D]
- IC50 [1, 3]: 24.8 ± 1.63 µM
- viability at 20 h [2, 5]: 91.1 ± 4.22%

Compound: CC(O)c1ccc2c(c1)CCC1[C@](C)(C(=O)O)CCC[C@]21C (relative stereo) [Compound 5, (1R*,4aS*)-7-(1-hydroxyethyl)-1,4a-dimethyl-1,2,3,4,4a,9,10,10a-octahydrophenanthrene-1-carboxylic acid]
- IC50 [1, 3]: 12.3 ± 4.97 µM
- viability at 20 h [2, 4]: > 80%
- viability at 20 h [2, 5]: 82.2 ± 3.21%
- cell viability (RAW 264.7 cells; RAW 264.7, MTT assay): > 95%
- effect on LPS-increased iNOS mRNA expression (iNOS mRNA expression): inhibited this increase in a concentration-dependent manner

Compound: CC(C)c1cc2c(c(O)c1O)[C@@]1(C)CCC(=O)C(C)(C)C1[C@@H](O)[C@H]2O (stereo partly drawn) [Compound 3, 6α,7α,11-trihydroxy-3-oxoferrugiol]
- NO inhibition (in words) [1]: showed inhibitory activities
- IC50 ([1]; RAW264.7, 20 h): 17.5 ± 1.85 µM
- viability at 20 h ([2]; Cell Viability (% Control)): 95.5 ± 3.39%
- viability at 20 h ([2]; cell viability): > 80%
- cell viability (RAW 264.7 cells; mouse, 20 h): > 95%
- effect on LPS-increased iNOS mRNA expression (iNOS mRNA expression): inhibited this increase in a concentration-dependent manner

Compound: CC1(C)CCc2cc(-c3ccc(O)cc3)cc(O)c2O1 [I]
- NO inhibition (in words) [1]: showed inhibitory activities

Compound: CC(C)=CCCC1(C)C=Cc2cc(-c3ccc(O)cc3)cc(O)c2O1 (stereo not drawn) [H]
- NO inhibition (in words) [1]: showed inhibitory activities

Compound: CC1(C)CCC2C(=CC1=O)CCC1C(C)(C(=O)O)CCCC21C (stereo not drawn) [Compound 6, 12(13→15)abeo-13-oxo-8(14)-abietene-18-oic acid]
- IC50 [1, 3]: 24.8 ± 12.9 µM
- viability at 20 h [2, 4]: < 80%
- viability at 20 h [2, 5]: 76.3 ± 5.48%

Compound: CC1(C)CCc2cc(-c3ccc(O)cc3)cc(O)c2O1 [Compound 9, 6-(4-hydroxyphenyl)-2,2-dimethylchroman-8-ol]
- IC50 [1, 3]: 13.3 ± 0.51 µM
- viability at 20 h [2, 4]: > 80%
- viability at 20 h [2, 5]: 98 ± 1.53%
- cell viability (RAW 264.7 cells; RAW 264.7, MTT assay): > 95%
- effect on LPS-increased iNOS mRNA expression (iNOS mRNA expression): inhibited this increase in a concentration-dependent manner

Compound: O=c1c(O)c(-c2ccc(O)c(O)c2)oc2cc(O)cc(O)c12 [Quercetin, quercetin, reference compound]
- IC50 [1, 3]: 35.9 ± 2.34 µM
- viability at 20 h [2, 5]: 94.1 ± 1.32%

Compound: CC(O)c1ccc2c(c1)CCC1[C@](C)(C(=O)O)CCC[C@]21C (stereo partly drawn) [E]
- NO inhibition (in words) [1]: showed inhibitory activities

Compound: C[C@@H]1[C@@H](O)CC2C(C)(C)C3CC21CC[C@@]3(C)O (relative stereo) [Compound 10, (2S*,3S*,6R*)-3,6,8,8-tetramethyloctahydro-1H-3a,7-methanoazulene-2,6-diol]
- IC50 [1, 3]: > 100 µM
- viability at 20 h [2, 5]: 89.5 ± 2.15%

Compound: CC(C)=CCCC1(C)C=Cc2cc(-c3ccc(O)cc3)cc(O)c2O1 (stereo not drawn) [Compound 8, amycolataiwanensin H]
- IC50 [1, 3]: 17.8 ± 1.13 µM
- viability at 20 h [2, 4]: > 80%
- viability at 20 h [2, 5]: 95.9 ± 1.32%
- cell viability (RAW 264.7 cells; RAW 264.7, MTT assay): > 95%
- effect on LPS-increased iNOS mRNA expression (iNOS mRNA expression): inhibited this increase in a concentration-dependent manner
